Measurements from US6916970B2, “Transgenic plants comprising antifungal polypeptides from alfalfa and methods for controlling plant pathogenic fungi” (Monsanto Technology, LLC, priority 1996, dated 2005).

Legend:
Verticillium dahliae [1] = experiment: Verticillium wilt disease test on transgenic potato plants expressing AlfAFP1; assay type: in vivo, potato plants (Solanum tuberosum var. Russet Burbank)
Procedure: Conidia and mycelia of a 2-3 week old culture of virulent Verticillium dahliae were used to inoculate a PDA (potatoes, 200 g/l; Bacto dextrose, 20 g/l; and Bacto agar, 15 g/l) Petri plate. This culture was allowed to grow at 22° C. for 4-5 days. Conidia were then harvested by washing the culture plate with sterile distilled water and filtering the liquid through two layers of cheesecloth. The conidial spore concentration was determined using a hemacytometer, and adjusted to 1×10^6 conidia/ml with sterile distilled water.
Transgenic and non-transgenic potato plants were grown from stem cuttings under sterile conditions as described above in plastic cups containing 50 mls of PM-agar medium. When plants were about 1-2 inches tall, they were removed from the medium and their roots were dipped in the spore suspension (Joaquim et al., 1991). The inoculated plants were then transplanted into 6-inch pots containing Metro-Mix 350 soil. After transplanting, each plant received an additional 5 mls of the spore suspension (1×10^6 condida/ml) on the soil surface around the base of the stem. The pots were placed in a growth chamber under the following conditions: temperature at 20° C., light intensity at […], 12 hr day/12 hr night light cycle, subirrigation with water 2 times/day, 20 minutes soaking each time. Four weeks after inoculation, the plants were scored for disease severity on a scale of 0-100% (Horsfall et al., 1945). To develop a disease progress curve over time, plants were rated once a week for at least 8 weeks.
Twenty-one independent transgenic potato lines expressing AlfAFP1 were tested for resistance to Verticillium wilt disease. […]
Table 2 summarizes the qualitative protein expression data for each of the lines, and the disease severity rating of each individual line in the Verticillium wilt disease test determined at 46 days post inoculation. […]

Verticillium dahliae [2] = experiment: Inhibition of fungal hyphal growth (microscopic hyphal length assay); assay type: cell-based; settings: V. dahliae
Procedure: (§1) The antifungal activity of AlfAFP1 (SEQ ID NO:2) is expressed as the concentration in μg/ml required to cause 50% inhibition of fungal hyphal growth (IC50). Percent fungal hyphal growth inhibition is defined as […] of the average hyphae length in the test sample culture divided by the average hyphae length in the control culture in which buffer is added in place of the polypeptide sample.
(§2) The antifungal activity of AlfAFP1 was determined by measuring the inhibition of fungal hyphal length of a number of different fungi in the presence of this polypeptide under an inverted microscope. Fungal spores (2×10^4 spores/ml) were allowed to germinate for 5 to 15 hours, depending on the fungus used in the test, in 50 μl of double strength testing medium. […] For studies on the antagonistic effect of cations, CaCl2 and KCl were added to final concentrations of 1 mM and 50 mM, respectively. This salt-supplemented medium is referred to as “high salt medium,” and the original medium is referred to as “low salt medium.” After spore germination, 50 μl of a filter-sterilized solution of polypeptide in distilled water were added to the testing well containing the germinated spores, and the mixture was incubated for 15 to 24 hours at 24° C. AlfAFP1 was tested in a concentration range from 0 to 80 μg/ml to determine IC50 values. Polypeptide concentrations were determined using the BCA protein assay kit obtained from Pierce (Rockford, Ill.).

Fusarium culmorum = experiment: as above; assay type: cell-based; settings: F. culmorum
Procedure: as §1, §2

[3] = high salt medium (1 mM CaCl2 and 50 mM KCl added)

## AlfAFP1: antifungal polypeptide of 45 amino acids isolated from alfalfa (Medicago) seed, SEQ ID NO:2, about 5,186 daltons (RTCENLADKYRGPCFSGCDTHCTTKENAVSGRCRDDFRCWCTKRC; Alfalfa)
Verticillium dahliae [1]; AlfAFP1 expressing potato lines, 46 days post inoculation, controls 1 out of 21 and 1 out of 18
  Lines with disease severity rated equal to or less than 30%: Thirteen out of 21
Verticillium dahliae [1]; average of 21 AlfAFP1 positive potato lines, non-expressors 62.7, vector control 62.2
  Average Disease Severity (%) (46 Days Post Inoc.): 29.6%
Verticillium dahliae [1]; average of 21 expressor lines versus 21 non-expressor lines or 18 vector control lines, 46 days post inoculation
  Disease severity less than that of the non-expressors or the vector controls: 52%
Verticillium dahliae [2]; [3]
  IC50 (concentration required to cause 50% inhibition of fungal hyphal growth), High salt: 15 µg/mL
Verticillium dahliae [2]; low salt medium
  IC50 (concentration required to cause 50% inhibition of fungal hyphal growth), Low salt: 4 µg/mL
Fusarium culmorum; [3]
  IC50 (concentration required to cause 50% inhibition of fungal hyphal growth), High salt: 15 µg/mL
Fusarium culmorum; low salt medium
  IC50 (concentration required to cause 50% inhibition of fungal hyphal growth), Low salt: 1 µg/mL
